Assay results taken from PubChem BioAssay AID1919010 (Molecular Pharmacology Branch, DTP, NCI, 2023).

System: Hs578T complex spheroid growth, percent test/control
Assay: Anticancer human tumor Hs578T cell line growth inhibition [AhR];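 also: luminescent viability signal as a proxy for spheroid growth; spheroids exposed to agents for one week after three days of growth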
Settings: for IC50: curve of first compound; for viability, T/C: stronger effect = lower value
Description: Multicellular complex tumor spheroid response to aryl hydrocarbon receptor antagonists in combination with a variety of drugs and investigational agents in selected tumor cell lines
The current study was undertaken to assess response to aryl hydrocarbon receptor antagonists in combination with standard-of-care drugs and investigational agents in solid tumor complex spheroid models. Complex spheroids include a stromal component modeled by human endothelial cells (HUVEC) and fibroblasts modeled by human mesenchymal stem cells (MSCs). The concentration ranges selected for each drug and investigational agent were based upon clinically achievable concentrations if the clinical Cmax of the agent was known.
Compounds. The drugs and investigational agents: BAY 2416964 (NSC825713), GNF351 (NSC835774), CH-223191 (NSC835775), CPI-455 (NSC825282), aza-TdCyd (NSC777586), decitabine (NSC127716), belinostat (NSC758774), entinostat (NSC756642), pevonedistat (NSC761192), tazemetostat (NSC777109), talazoparib (NSC765396), olaparib (NSC753686), selinexor (NSC780203), nedisertib (M3814, NSC802822), bortezomib (NSC756655), venetoclax (NSC766270), doxorubicin (NSC123127), elimusertib (BAY189344, NSC800525), ceralasertib (AZD6738, NSC777638), TAK-243 (NSC785004), alisertib (NSC759677), etoposide (NSC141540), topotecan (NSC609699), eribulin (NSC707389), gemcitabine (NSC613327), carboplatin (NSC241240), cisplatin (NSC119875), and SN-38 (NSC673596) were obtained from the National Cancer Institute (NCI) Developmental Therapeutics Program Chemical Repository (32). The FDA-approved anticancer drug set is available from the Developmental Therapeutics Program at https://dtp.cancer.gov/organization/dscb/obtaining/available plates.htm. […] The stock solutions were prepared in dimethyl sulfoxide (DMSO, Sigma-Aldrich, St. Louis, MO, cat. D2650), except for the platinum compounds which were prepared in saline (Quality Biological, Gaithersburg, MD, cat. 114-055-101), at 800-fold the tested concentration and stored at -70 degrees C prior to their use. All drugs and investigational agents were tested over a range starting from a high concentration at or near the clinical Cmax and decreasing in half-log increments. If the clinical Cmax for an agent had not been determined, the highest concentration tested was 10 microM (Table 1).
Cell Culture. All cells were maintained in an incubator at 37 degrees C and 5% CO2 with 95% humidity. The PDC lines were cultured according to standard operating procedures established by the NCI PDMR (https://pdmr.cancer.gov). Briefly, all PDCs were thawed and cultured in Matrigel-coated flasks prepared with a working solution of 1X Ham's F-12 nutrient mix, without supplementation (Invitrogen, Waltham, MA, cat. 11765054), 100 U/mL penicillin-streptomycin (Invitrogen, cat. 15140122), and 2.5% Matrigel (Corning Inc., Corning, NY, cat. 354248) for the first three passages. All PDCs were cultured in complete DMEM/F-12 media containing advanced DMEM/F-12 (Invitrogen, cat. 12634028), 4.9% defined fetal bovine serum, heat inactivated (HyClone Laboratories Inc., Logan, UT, cat. SH30070.03HI), 389 ng/mL hydrocortisone (Sigma-Aldrich, cat. H4001), 9.7 ng/mL human EGF recombinant protein (Invitrogen, cat. PHG0313), 23.4 microg/mL adenine (Sigma-Aldrich, cat. A2786), 97.3 U/mL penicillin-streptomycin (Invitrogen, cat. 15140122), 1.9 mM L-glutamine (Invitrogen, cat. 25030081), and 9.7 microM Y-27632 dihydrochloride (Tocris Bioscience, Bristol, United Kingdom, cat. 1254). The PDCs were cultured in complete DMEM/F12 media without 10 microM Y-27632 dihydrochloride for at least two passages prior to the screen. The established cell lines NCI-H1341 and […] were cultured in DMEM/F-12, HEPES (Invitrogen, cat. 11330032), 5% defined fetal bovine serum (HyClone Laboratories Inc., cat. SH30070.03), ITS premix universal culture supplement [insulin (5 microg/mL), transferrin (5 microg/mL), and selenious acid (5 ng/mL)] […]

[1] = second compound 0.1 µM, first compound 0.0316 µM
[2] = second compound 0.1 µM, first compound 0.1 µM
[3] = second compound 0.1 µM, first compound 0.316 µM
[4] = second compound 0.1 µM, first compound 1 µM
[5] = second compound 0.316 µM, first compound 0.0316 µM
[6] = second compound 0.316 µM, first compound 0.1 µM
[7] = second compound 0.316 µM, first compound 0.316 µM
[8] = second compound 0.316 µM, first compound 1 µM
[9] = second compound 1 µM, first compound 0.0316 µM
[10] = second compound 1 µM, first compound 0.1 µM
[11] = second compound 1 µM, first compound 0.316 µM
[12] = second compound 1 µM, first compound 1 µM
[13] = second compound 3.16 µM, first compound 0.0316 µM
[14] = second compound 3.16 µM, first compound 0.1 µM
[15] = second compound 3.16 µM, first compound 0.316 µM
[16] = second compound 3.16 µM, first compound 1 µM
[17] = second compound 10 µM, first compound 0.0316 µM
[18] = second compound 10 µM, first compound 0.1 µM
[19] = second compound 10 µM, first compound 0.316 µM
[20] = second compound 10 µM, first compound 1 µM

For `COc1cccc2c1C(=O)c1c(O)c3c(c(O)c1C2=O)CC(O)(C(=O)CO)CC3OC1CC(N)C(O)C(C)O1` (stereo not given) + CC(CO)NC(=O)c1cc(-c2ccc(Cl)cc2)nn(-c2cnn(C)c2)c1=O, the IC50 (second compound 0.1 µM) was 469 nM, the IC50 (second compound 0.316 µM) was 502 nM and the IC50 (second compound 1 µM) was 497 nM. The IC50 (second compound 3.16 µM) was 398 nM, the IC50 (second compound 10 µM) was 374 nM and the viability, T/C [1] was 96.3%. The viability, T/C [2] was 86.2%, the viability, T/C [3] was 64.6% and the viability, T/C [4] was 23.9%. The viability, T/C (second compound 0.1 µM, first compound 3.16 µM) was 3.62%, the viability, T/C (second compound 0.1 µM, first compound 10 µM) was 3.54% and the viability, T/C [5] was 78.7%. The viability, T/C [6] was 84.3%, the viability, T/C [7] was 66.8% and the viability, T/C [8] was 24.1%. The viability, T/C (second compound 0.316 µM, first compound 3.16 µM) was 2.56%, the viability, T/C (second compound 0.316 µM, first compound 10 µM) was 2.88% and the viability, T/C [9] was 92%. For the same compound, the viability, T/C [10] was 88.1%, the viability, T/C [11] was 67.8% and the viability, T/C [12] was 22.7%. The viability, T/C (second compound 1 µM, first compound 3.16 µM) was 3.26%, the viability, T/C (second compound 1 µM, first compound 10 µM) was 2.93% and the viability, T/C [13] was 88.6%. The viability, T/C [14] was 91%, the viability, T/C [15] was 58.1% and the viability, T/C [16] was 14.6%. It also gave a viability, T/C (second compound 3.16 µM, first compound 3.16 µM) of 2.55%, a viability, T/C (second compound 3.16 µM, first compound 10 µM) of 3.04% and a viability, T/C [17] of 78.3%. The viability, T/C [18] was 86.4%, the viability, T/C [19] was 57.8% and the viability, T/C [20] was 4.9%. It also gave a viability, T/C (second compound 10 µM, first compound 3.16 µM) of 2.84% and a viability, T/C (second compound 10 µM, first compound 10 µM) of 2.14%.

For `Nc1ncn(C2CC(O)C(CO)O2)c(=O)n1` (stereo not given) + CC(CO)NC(=O)c1cc(-c2ccc(Cl)cc2)nn(-c2cnn(C)c2)c1=O, the IC50 (second compound 0.1 µM) was greater than 1000 nM, the IC50 (second compound 0.316 µM) was greater than 1000 nM and the IC50 (second compound 1 µM) was greater than 1000 nM. For the same compound, the IC50 (second compound 3.16 µM) was greater than 1000 nM, the IC50 (second compound 10 µM) was greater than 1000 nM and the viability, T/C (second compound 0.1 µM, first compound 0.00316 µM) was 109%. For the same compound, the viability, T/C (second compound 0.1 µM, first compound 0.01 µM) was 107%, the viability, T/C [1] was 118% and the viability, T/C [2] was 107%. For the same compound, the viability, T/C [3] was 103%, the viability, T/C [4] was 95.5% and the viability, T/C (second compound 0.316 µM, first compound 0.00316 µM) was 106%. It also gave a viability, T/C (second compound 0.316 µM, first compound 0.01 µM) of 114%, a viability, T/C [5] of 110% and a viability, T/C [6] of 114%. The viability, T/C [7] was 120%, the viability, T/C [8] was 109% and the viability, T/C (second compound 1 µM, first compound 0.00316 µM) was 117%. The viability, T/C (second compound 1 µM, first compound 0.01 µM) was 108%, the viability, T/C [9] was 103% and the viability, T/C [10] was 102%. For the same compound, the viability, T/C [11] was 107%, the viability, T/C [12] was 96% and the viability, T/C (second compound 3.16 µM, first compound 0.00316 µM) was 109%. It also gave a viability, T/C (second compound 3.16 µM, first compound 0.01 µM) of 109%, a viability, T/C [13] of 117% and a viability, T/C [14] of 114%. It also gave a viability, T/C [15] of 101%, a viability, T/C [16] of 97% and a viability, T/C (second compound 10 µM, first compound 0.00316 µM) of 96.9%. For the same compound, the viability, T/C (second compound 10 µM, first compound 0.01 µM) was 100%, the viability, T/C [17] was 105% and the viability, T/C [18] was 99.6%. It also gave a viability, T/C [19] of 92.9% and a viability, T/C [20] of 100%.
